Measurements reported in patent publication US20060276464A1, “Diarylsulfone sulfonamides and use thereof” (Wyeth, priority 2005, published 2006).
pEC50, pIC50: −log10 of the molar value.

Legend:
SFRP-1 [1] = target: T1, SFRP-1 (Homo sapiens, UniProt Q8N474); test: Fluorescence polarization binding assay (competitive displacement of a probe compound from SFRP-1); details: fluorescence anisotropy, 45 nM SFRP-1, 20 nM probe;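 also: test compound competes with a fluorescent probe held by SFRP-1, seen as a drop in probe anisotropy after incubation in darkness, with anisotropy as function of rising compound dose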
T1 sequence (Q8N474 32-314): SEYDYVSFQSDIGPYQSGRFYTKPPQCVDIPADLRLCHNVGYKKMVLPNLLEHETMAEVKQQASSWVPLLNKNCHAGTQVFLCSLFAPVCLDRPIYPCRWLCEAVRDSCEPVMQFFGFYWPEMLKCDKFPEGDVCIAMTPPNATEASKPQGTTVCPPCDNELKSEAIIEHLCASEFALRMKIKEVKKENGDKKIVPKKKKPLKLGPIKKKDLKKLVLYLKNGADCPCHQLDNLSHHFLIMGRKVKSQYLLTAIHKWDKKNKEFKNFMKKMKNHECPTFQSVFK

SFRP-1 [2] = target: T1, SFRP-1; test: Cell-based assay for in vitro measurement of SFRP-1/SARP2 antagonist activity (U2OS cells co-transfected with 16x TCF-tk-Luciferase reporter, Wnt and hSFRP-1); details: for fold induction at 10 µM: U2OS, read-out: Fold Induction with SFRP-1, U2OS cells, single dose 10 μM, luciferase reporter, fold induction over SFRP-1 control;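 as to all read-outs here: U2OS cells co-transfected with a TCF-tk luciferase reporter, a Wnt vector, hSFRP-1 or empty vector and CMV-βgal, luciferase luminescence read in cell lysates alongside βgal activity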

pIC50 (SFRP-1 [1])	pEC50 (SFRP-1 [2])	fold induction at 10 µM (SFRP-1 [2])	Compound
5.22	5.76	2.5	COC(=O)C1CCC(NS(=O)(=O)c2cc(S(=O)(=O)c3ccccc3)ccc2C(C)C)CC1 (stereo not drawn) [Example 933, methyl 4-({[2-isopropyl-5-(phenylsulfonyl)phenyl]sulfonyl}amino)cyclohexanecarboxylate]
5.55	5.56	2.3	COC(=O)[C@H]1CC[C@H](CNS(=O)(=O)c2cc(S(=O)(=O)c3ccccc3)ccc2C(C)C)CC1 [Example 934, methyl trans-4-[({[2-isopropyl-5-(phenylsulfonyl)phenyl]sulfonyl}amino)methyl]cyclohexanecarboxylate]
5.15	5.60	2.5	CC(C)c1ccc(S(=O)(=O)c2ccccc2)cc1S(=O)(=O)NC1CC(C)(C)NC(C)(C)C1 [Example 935, 2-isopropyl-5-(phenylsulfonyl)-N-(2,2,6,6-tetramethylpiperidin-4-yl)benzenesulfonamide]
5.52	5.74	2.7	CC(C)c1ccc(S(=O)(=O)c2ccccc2)cc1S(=O)(=O)NCc1ccncc1 [Example 936, 2-isopropyl-5-(phenylsulfonyl)-N-(pyridin-4-ylmethyl)benzenesulfonamide]
5.77	5.64	2.8	CN(CCNS(=O)(=O)c1cc(S(=O)(=O)c2ccccc2)ccc1C(F)(F)F)C(=O)N[C@H]1CCNC1 [Example 937, N-[2-(methyl{[(3S)-pyrrolidin-3-ylamino]carbonyl}amino)ethyl]-5-(phenylsulfonyl)-2-(trifluoromethyl)benzenesulfonamide]
6.05	6.07	4.4	COC(=O)c1cccc(S(=O)(=O)N2CCC(NS(=O)(=O)c3cc(S(=O)(=O)c4ccccc4)ccc3C(F)(F)F)CC2)c1 [Example 938, methyl 3-{[4-({[5-(phenylsulfonyl)-2-(trifluoromethyl)phenyl]sulfonyl}amino)piperidin-1-yl]sulfonyl}benzoate]
6.15	–	2.2	COc1ccc(CCNS(=O)(=O)c2cc(S(=O)(=O)c3ccccc3)ccc2C(F)(F)F)cc1 [Example 939, N-[2-(4-methoxyphenyl)ethyl]-5-(phenylsulfonyl)-2-(trifluoromethyl)benzenesulfonamide]
5.96	5.64	4.1	O=S(=O)(NCCC1CCNCC1)c1cc(S(=O)(=O)c2ccccc2)ccc1C(F)(F)F [Example 940, 5-(phenylsulfonyl)-N-(2-piperidin-4-ylethyl)-2-(trifluoromethyl)benzenesulfonamide]
6.15	5.87	3.2	O=C(O)CN1CCC(CNS(=O)(=O)c2cc(S(=O)(=O)c3ccccc3)ccc2C(F)(F)F)CC1 [Example 941, {4-[({[5-(phenylsulfonyl)-2-(trifluoromethyl)phenyl]sulfonyl}amino)methyl]piperidin-1-yl}acetic acid]
6.72	6.68	3.8	Nc1ccc(CNS(=O)(=O)c2cc(S(=O)(=O)c3ccccc3)ccc2C(F)(F)F)cc1 [Example 942, N-(4-aminobenzyl)-5-(phenylsulfonyl)-2-(trifluoromethyl)benzenesulfonamide]
6.40	6.24	3.4	O=S(=O)(NCCc1ccc(O)cc1)c1cc(S(=O)(=O)c2ccccc2)ccc1C(F)(F)F [Example 943, N-[2-(4-hydroxyphenyl)ethyl]-5-(phenylsulfonyl)-2-(trifluoromethyl)benzenesulfonamide]
5.77	5.84	2.9	O=C(O)CN1CCC(CCNS(=O)(=O)c2cc(S(=O)(=O)c3ccccc3)ccc2C(F)(F)F)CC1 [Example 944, {4-[2-({[5-(phenylsulfonyl)-2-(trifluoromethyl)phenyl]sulfonyl}amino)ethyl]piperidin-1-yl}acetic acid]
6.05	5.95	2.9	COC(=O)C1CCCC(NS(=O)(=O)c2cc(S(=O)(=O)c3ccccc3)ccc2C(F)(F)F)C1 (stereo not drawn) [Example 945, methyl 3-({[5-(phenylsulfonyl)-2-(trifluoromethyl)phenyl]sulfonyl}amino)cyclohexanecarboxylate]
6.30	5.84	3	COC(=O)C1CCC(NS(=O)(=O)c2cc(S(=O)(=O)c3ccccc3)ccc2C(F)(F)F)CC1 (stereo not drawn) [Example 946, methyl 4-({[5-(phenylsulfonyl)-2-(trifluoromethyl)phenyl]sulfonyl}amino)cyclohexanecarboxylate]
6.40	6.16	3.2	COC(=O)[C@H]1CC[C@H](CNS(=O)(=O)c2cc(S(=O)(=O)c3ccccc3)ccc2C(F)(F)F)CC1 [Example 947, methyl trans-4-[({[5-(phenylsulfonyl)-2-(trifluoromethyl)phenyl]sulfonyl}amino)methyl]cyclohexanecarboxylate]
5.22	5.56	2.4	CC1(C)CC(NS(=O)(=O)c2cc(S(=O)(=O)c3ccccc3)ccc2C(F)(F)F)CC(C)(C)N1 [Example 948, 5-(phenylsulfonyl)-N-(2,2,6,6-tetramethylpiperidin-4-yl)-2-(trifluoromethyl)benzenesulfonamide]
6.10	6.00	3.2	O=S(=O)(NCc1ccncc1)c1cc(S(=O)(=O)c2ccccc2)ccc1C(F)(F)F [Example 949, 5-(phenylsulfonyl)-N-(pyridin-4-ylmethyl)-2-(trifluoromethyl)benzenesulfonamide]
5.74	5.74	2.6	COC(=O)c1ccc(CNS(=O)(=O)c2cc(S(=O)(=O)c3ccccc3)ccc2C(F)(F)F)cc1 [Example 950, methyl 4-[({[5-(phenylsulfonyl)-2-(trifluoromethyl)phenyl]sulfonyl}amino)methyl]benzoate]
5.30	–	1.4	CC(C)c1ccc(S(=O)(=O)c2ccccc2)cc1S(=O)(=O)NC1CCCC(C(=O)O)C1 (stereo not drawn) [Example 952, 3-({[2-isopropyl-5-(phenylsulfonyl)phenyl]sulfonyl}amino)cyclohexanecarboxylic acid]
5.15	–	1.5	CC(C)c1ccc(S(=O)(=O)c2ccccc2)cc1S(=O)(=O)NC1CCC(C(=O)O)CC1 (stereo not drawn) [Example 953, 4-({[2-isopropyl-5-(phenylsulfonyl)phenyl]sulfonyl}amino)cyclohexanecarboxylic acid]
6.05	5.25	2.2	CC(C)c1ccc(S(=O)(=O)c2ccccc2)cc1S(=O)(=O)NC[C@H]1CC[C@H](C(=O)O)CC1 [Example 954, trans-4-[({[2-isopropyl-5-(phenylsulfonyl)phenyl]sulfonyl}amino)methyl]cyclohexanecarboxylic acid]
5.22	5.29	2.4	CN(CCCNS(=O)(=O)c1cc(S(=O)(=O)c2ccccc2)ccc1C(F)(F)F)C(=O)NC1CCN(C(=O)OC(C)(C)C)CC1 [Example 955]
6.96	6.51	4.3	O=C(O)c1cccc(N2CCC(CNS(=O)(=O)c3cc(S(=O)(=O)c4ccccc4)ccc3C(F)(F)F)CC2)c1 [Example 956, 3-{4-[({[5-(phenylsulfonyl)-2-(trifluoromethyl)phenyl]sulfonyl}amino)methyl]piperidin-1-yl}benzoic acid]
6.52	5.86	3.9	O=C(O)c1cccc(N2CCC(CCNS(=O)(=O)c3cc(S(=O)(=O)c4ccccc4)ccc3C(F)(F)F)CC2)c1 [Example 957, 3-{4-[2-({[5-(phenylsulfonyl)-2-(trifluoromethyl)phenyl]sulfonyl}amino)ethyl]piperidin-1-yl}benzoic acid]
6.40	6.41	3.7	N[C@H]1CC[C@H](NS(=O)(=O)c2cc(S(=O)(=O)c3ccccc3)ccc2C(F)(F)F)CC1 [Example 959, N-(trans-4-aminocyclohexyl)-5-(phenylsulfonyl)-2-(trifluoromethyl)benzenesulfonamide]
5.40	5.59	2.8	CN(CCNS(=O)(=O)c1cc(S(=O)(=O)c2ccccc2)ccc1C(F)(F)F)CCC(=O)OC(C)(C)C [Example 961, tert-butyl N-methyl-N-[2-({[5-(phenylsulfonyl)-2-(trifluoromethyl)phenyl]sulfonyl}amino)ethyl]-[…]-alaninate]
5.52	5.54	2.7	CN(CCNS(=O)(=O)c1cc(S(=O)(=O)c2ccccc2)ccc1C(F)(F)F)CC(=O)OC(C)(C)C [Example 962, tert-butyl N-methyl-N-[2-({[5-(phenylsulfonyl)-2-(trifluoromethyl)phenyl]sulfonyl}amino)ethyl]glycinate]
6.52	5.94	3.5	O=C(O)c1cccc(S(=O)(=O)Nc2ccc(CNS(=O)(=O)c3cc(S(=O)(=O)c4ccccc4)ccc3C(F)(F)F)cc2)c1 [Example 963]
